Results taken from patent publication US10071974B2, “Morpholine and 1,4-oxazepane amides as somatostatin receptor subtype 4 (SSTR4) agonists” (Boehringer Ingelheim International GmbH, priority 2014, dated 2018).

How the values were obtained:
[1] = target: human Somatostatin 4 Receptor (SSTR4) (Homo sapiens (Human), UniProt P31391); experiment: cAMP assay with human somatostatin 4 receptor (hSSTR4 expressing H4 cells); assay type: cell-based; conditions: read-out: SSTR4 agonism EC50
[2] = in vitro; conditions: human, microsomes, pH 7.6
[3] = target: human SSTR5 (Homo sapiens (Human), UniProt P35346); experiment: Radioligand binding assay, CHO cell membranes expressing recombinant human SSTR5
human SSTR5, sequence (P35346 whole entry): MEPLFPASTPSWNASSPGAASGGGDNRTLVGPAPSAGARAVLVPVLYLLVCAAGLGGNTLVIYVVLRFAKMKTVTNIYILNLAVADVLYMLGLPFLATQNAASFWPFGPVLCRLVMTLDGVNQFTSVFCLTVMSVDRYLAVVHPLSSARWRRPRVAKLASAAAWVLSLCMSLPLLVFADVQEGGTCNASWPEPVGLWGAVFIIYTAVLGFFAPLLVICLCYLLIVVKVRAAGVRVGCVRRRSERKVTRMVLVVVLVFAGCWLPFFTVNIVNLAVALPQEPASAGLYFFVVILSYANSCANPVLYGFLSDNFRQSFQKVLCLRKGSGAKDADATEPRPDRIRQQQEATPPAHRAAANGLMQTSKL
Description: (§1) Radioligand Binding Assays
(§2) Method description for binding assays with human Somatostatin receptors by use of CHO cell membranes expressing recombinant human SSTR1 or human SSTR2 or human SSTR3 or human SSTR4 or human SSTR5
(§3) Receptor binding assays refer to a technique in which labeled receptor ligands are used to detect binding to a receptor. In competition experiments test compounds, which are not labeled, compete with the binding side of a labeled ligand. The displacement of the labeled ligand by the test compound leads to a decreased signal.
(§4) For the binding experiments 200 μL of membrane homogenate from one of the following protein amounts is used: hSSTR1 (40 μg/well); hSSTR2 (25 μg/well); hSSTR3 (1.5 μg/well); hSSTR4 (0.5 μg/well); hSSTR5 (25 μg/well). The homogenate is incubated with 0.05 nM of radioligand ([3-125I-Tyr]-Somatostatin-(1-14)) in addition to increasing concentrations of a test compound or vehicle (100% binding) in a total volume of 250 μL using a Hepes buffer (10 mM, EDTA 1 mM, MgCl2 5 mM, pH7.6, BSA 0.5%, Bacitracin 0.003%, DMSO 1%) for 180 min at room temperature. The incubation is terminated by filtration with ice cold NaCl 0.9% through polyethyleneimine treated (0.3%) GF/B glass fiber filters using a cell harvester. The protein-bound radioactivity is measured in a suitable reader. The non-specific binding is defined as radioactivity bound in the presence of 1 μM Somatostatin-14 during the incubation period.
(§5) The analysis of the concentration-binding curves is performed by computer-assisted nonlinear least square curve fitting method using the model of one receptor binding site.
(§6) Selectivity data was obtained with the aid of the above described radioligand binding assays.

[4] = target: human SSTR1 (Homo sapiens (Human), UniProt P30872); experiment: Radioligand binding assay, CHO cell membranes expressing recombinant human SSTR1
human SSTR1, sequence (P30872 whole entry): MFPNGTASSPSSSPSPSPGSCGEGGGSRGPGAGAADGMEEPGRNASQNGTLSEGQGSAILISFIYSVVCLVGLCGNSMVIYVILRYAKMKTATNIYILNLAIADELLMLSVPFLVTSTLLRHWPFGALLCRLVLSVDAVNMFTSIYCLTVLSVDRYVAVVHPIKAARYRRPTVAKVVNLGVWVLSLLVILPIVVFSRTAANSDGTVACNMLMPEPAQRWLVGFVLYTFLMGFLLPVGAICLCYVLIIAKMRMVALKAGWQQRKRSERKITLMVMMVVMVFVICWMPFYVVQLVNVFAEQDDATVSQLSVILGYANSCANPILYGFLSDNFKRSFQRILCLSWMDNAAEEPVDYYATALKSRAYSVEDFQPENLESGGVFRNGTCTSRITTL
Description: as §1, §2, §3, §4, §5, §6

[5] = target: human SSTR2 (Homo sapiens (Human), UniProt P30874); experiment: Radioligand binding assay, CHO cell membranes expressing recombinant human SSTR2
human SSTR2, sequence (P30874 whole entry): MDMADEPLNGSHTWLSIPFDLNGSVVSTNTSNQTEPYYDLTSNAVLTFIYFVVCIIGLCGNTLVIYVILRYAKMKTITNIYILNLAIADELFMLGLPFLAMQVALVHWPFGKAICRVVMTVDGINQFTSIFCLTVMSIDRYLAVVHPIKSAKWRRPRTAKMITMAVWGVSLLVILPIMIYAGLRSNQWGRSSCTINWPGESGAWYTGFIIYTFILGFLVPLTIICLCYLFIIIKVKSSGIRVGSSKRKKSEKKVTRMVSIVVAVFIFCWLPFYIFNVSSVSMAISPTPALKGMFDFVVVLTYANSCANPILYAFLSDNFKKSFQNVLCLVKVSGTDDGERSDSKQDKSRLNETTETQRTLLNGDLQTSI
Description: as §1, §2, §3, §4, §5, §6

[6] = target: human SSTR3 (Homo sapiens (Human), UniProt P32745); experiment: Radioligand binding assay, CHO cell membranes expressing recombinant human SSTR3
human SSTR3, sequence (P32745 whole entry): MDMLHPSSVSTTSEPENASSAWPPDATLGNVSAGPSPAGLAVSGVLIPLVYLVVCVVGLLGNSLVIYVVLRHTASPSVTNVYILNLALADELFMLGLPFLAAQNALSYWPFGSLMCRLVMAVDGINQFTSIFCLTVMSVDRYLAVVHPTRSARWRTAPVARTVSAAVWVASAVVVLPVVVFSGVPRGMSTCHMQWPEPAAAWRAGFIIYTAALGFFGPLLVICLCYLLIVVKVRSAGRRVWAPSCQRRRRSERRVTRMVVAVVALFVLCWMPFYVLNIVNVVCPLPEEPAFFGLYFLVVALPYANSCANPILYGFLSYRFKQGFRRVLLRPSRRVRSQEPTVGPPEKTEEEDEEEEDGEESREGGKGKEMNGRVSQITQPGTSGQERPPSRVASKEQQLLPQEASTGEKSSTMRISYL
Description: as §1, §2, §3, §4, §5, §6

[7] = target: human SSTR4 (Homo sapiens (Human), UniProt P31391); experiment: Radioligand binding assay, CHO cell membranes expressing recombinant human SSTR4
human SSTR4, sequence (P31391 whole entry): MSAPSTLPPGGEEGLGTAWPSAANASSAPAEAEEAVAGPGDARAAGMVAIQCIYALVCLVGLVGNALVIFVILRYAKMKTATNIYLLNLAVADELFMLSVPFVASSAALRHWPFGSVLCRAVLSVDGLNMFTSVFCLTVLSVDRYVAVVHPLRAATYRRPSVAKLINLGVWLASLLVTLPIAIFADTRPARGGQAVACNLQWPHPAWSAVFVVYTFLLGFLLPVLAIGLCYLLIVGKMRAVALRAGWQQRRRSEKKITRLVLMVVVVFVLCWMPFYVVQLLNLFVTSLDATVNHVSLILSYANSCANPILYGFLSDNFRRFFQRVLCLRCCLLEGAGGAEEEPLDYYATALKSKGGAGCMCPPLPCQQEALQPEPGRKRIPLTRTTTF
Description: as §1, §2, §3, §4, §5, §6

human Somatostatin 4 Receptor (SSTR4), sequence (P31391 whole entry): as above

| Structure (SMILES) | EC50 [1] | half-life at 1 μM [2] | other results |
| --- | --- | --- | --- |
| Cn1nc(C(C)(C)NC(=O)C2CNCCOC2)c2ccccc21 (racemic) [Example 20] | 3.9 nM | > 2.17 h |  |
| Cn1nc(C(C)(C)NC(=O)C2CNCCCO2)c2ccccc21 (racemic) [Example 23] | 36.5 nM | > 2.17 h |  |
| Cn1nc(C(C)(C)NC(=O)C2CCNCCO2)c2ccccc21 (racemic) [Example 26] | 61.3 nM | > 2.17 h |  |
| Cc1nnc(C(C)(C)NC(=O)C2CNCCOC2)c2ccccc12 (racemic) [Example 37] | 11.7 nM | > 2.17 h |  |
| Cc1cc2ccccc2c(C(C)(C)NC(=O)C2CNCCOC2)n1 (racemic) [Example 44] | 7 nM | > 2.17 h |  |
| Cc1cccn2c(C(C)(C)NC(=O)C3CNCCOC3)ncc12 (racemic) [Example 116] | 9.3 nM | > 2.17 h |  |
| Cc1cccn2c(C(C)(C)NC(=O)C3CNCCOC3)nc(C)c12 (racemic) [Example 128] | 5 nM | > 2.17 h |  |
| Cn1nc(C(C)(C)NC(=O)C2CNCCOC2)c2ccccc21 (single isomer, unassigned) [Example 21] | 3.2 nM | > 2.17 h | Ki [3]: 9750 nM; Ki [4]: 9450 nM; Ki [5]: 9600 nM; Ki [6]: 8620 nM; Ki [7]: 89.2 nM |
| Cn1nc(C(C)(C)NC(=O)C2CNCCCO2)c2ccccc21 (single isomer, unassigned) [Example 24] | 36.2 nM | > 2.17 h | Ki [3]: 9750 nM; Ki [4]: 9450 nM; Ki [5]: 9600 nM; Ki [6]: 8620 nM; Ki [7]: 523 nM |
| Cn1nc(C(C)(C)NC(=O)C2CCNCCO2)c2ccccc21 (single isomer, unassigned) [Example 27] | 55.8 nM | > 2.17 h |  |
| Cc1cccc2c(C(C)(C)NC(=O)C3CNCCOC3)cnn12 (single isomer, unassigned) [Example 34] | 5.7 nM | > 2.17 h |  |
| Cc1ncc(C(C)(C)NC(=O)C2CNCCOC2)c2ccccc12 (single isomer, unassigned) [Example 41] | 0.7 nM | > 2.17 h |  |
| Cc1cc2ccccc2c(C(C)(C)NC(=O)C2CNCCOC2)n1 (single isomer, unassigned) [Example 46] | 3.4 nM | > 2.17 h |  |
| Cc1cc2ccccc2c(C(C)(C)NC(=O)C2CNCCCO2)n1 (single isomer, unassigned) [Example 48] | 18.9 nM | > 2.17 h |  |
| Cc1cccc2c(C(C)(C)NC(=O)C3CNCCOC3)noc12 (single isomer, unassigned) [Example 55] | 2.9 nM | > 2.17 h |  |
| Cc1cccc2c(C(C)(C)NC(=O)C3CNCCOC3)n[nH]c12 (single isomer, unassigned) [Example 60] | 1.3 nM | > 2.17 h |  |
| Cn1nc(C(C)(C)NC(=O)C2CNCCOC2)c2cccc(F)c21 (single isomer, unassigned) [Example 77] | 5.1 nM | > 2.17 h |  |
| Cn1nc(C(C)(C)NC(=O)C2CNCCOC2)c2cccc(Cl)c21 (single isomer, unassigned) [Example 82] | 3 nM | > 2.17 h |  |
| Cc1cccc2c(C(C)(C)NC(=O)C3CNCCOC3)nn(C)c12 (single isomer, unassigned) [Example 85] | 2 nM | > 2.17 h |  |
| CC(C)(NC(=O)C1CNCCOC1)c1n[nH]c2c(F)cccc12 (single isomer, unassigned) [Example 89] | 3.1 nM | > 2.17 h |  |
| CC(C)(NC(=O)C1CNCCOC1)c1n[nH]c2c(Cl)cccc12 (single isomer, unassigned) [Example 93] | 1.4 nM | > 2.17 h |  |
| Cc1cccn2c(C(C)(C)NC(=O)C3CNCCOC3)ncc12 (single isomer, unassigned) [Example 117] | 2.6 nM | > 2.17 h |  |
| CC(C)(NC(=O)C1CNCCOC1)c1ncc2c(Cl)cccn12 (single isomer, unassigned) [Example 120] | 5.9 nM | > 2.17 h |  |
| Cc1cccn2c(C(C)(C)NC(=O)C3CNCCOC3)ccc12 (single isomer, unassigned) [Example 136] | 3.7 nM | > 2.17 h |  |
| Cc1cccn2c(C(C)(C)NC(=O)C3CNCCCO3)ncc12 (single isomer, unassigned) [Example 145] | 29.1 nM | > 2.17 h |  |
| CC(C)(NC(=O)[C@H]1CNCCO1)c1cccc2ncccc12 [Example 8] | 258 nM |  |  |
| CC(C)(COc1cnccc1C(F)(F)F)NC(=O)[C@@H]1CNCCO1 [Example 9] | 190 nM |  |  |
| C[C@H](NC(=O)[C@@H]1CNCCO1)c1cccc2ccccc12 [Example 10] | 51.2 nM |  |  |
